In paper PMC12153356, “An antisense oligomer conjugate with unpredicted bactericidal activity against Fusobacterium nucleatum” (mBio, 2025):
Square brackets hold non-standard residues; d marks the D form. Peptide text beside a SMILES is read from it. * marks the point of attachment. 5TAMRA = CN(C)c1ccc2c(c1)Oc1cc(N(C)C)ccc1C21OC(=O)c2cc(C(=O)*)ccc21; Ahx = NCCCCCC(=O)O; βAla = NCCC(=O)O

Test system: F. nucleatum subsp. nucleatum ATCC 23726 (FNN23)
Test: CPP-TAMRA uptake by confocal laser scanning microscopy (CLSM)
Format: cell-based, Fusobacterium nucleatum subsp. nucleatum ATCC 23726
Conditions: 5 µM CPP-TAMRA, FNN23 10^8 CFU/mL in MHB, 37°C, 10, 30 and 60 min, 100 cells from four images, cytoplasmic signal
Description: To investigate the efficiency of different cell-penetrating peptides, we excluded a flow cytometry approach to quantify penetration efficiency because upon cell fixation, CPPs were reported to bind to cell membranes and remain attached even after multiple washes, which would result in a false-positive penetration signal in flow cytometry ([118]). Thus, we opted for a microscopy-based investigation with lower throughput but discrimination potential between membrane-associated and cytosolic signals. CPPs were coupled to the fluorophore 5(6)-carboxytetramethylrhodamine (TAMRA) by Peps4LS GmbH, and 200 µM stocks were prepared in house. […] The emission was detected at 685–795 nm for FM 4–64 and 570–620 nm for TAMRA. CLSM images were analyzed using ImageJ. To quantify CPP uptake, 100 cells were chosen out of four images per condition using the bright field image and analyzed for cytosolic TAMRA signal by excluding TAMRA-negative cells and TAMRA signal co-localized with the FM 4–64 signal.

Structure (SMILES): CN(C)c1ccc2c(c1)Oc1cc(N(C)C)ccc1C21OC(=O)c2cc(C(=O)N[C@@H](CCCNC(=N)N)C(=O)NCCCCCC(=O)N[C@@H](CCCNC(=N)N)C(=O)N[C@@H](CCCNC(=N)N)C(=O)NCCCCCC(=O)N[C@@H](CCCNC(=N)N)C(=O)N[C@@H](CCCNC(=N)N)C(=O)NCCCCCC(=O)N[C@@H](CCCNC(=N)N)C(=O)N[C@@H](CCCNC(=N)N)C(=O)NCCCCCC(=O)N[C@@H](CCCNC(=N)N)C(=O)NCCCCCC(=O)NCCC(=O)O)ccc21 [(RXR)4XB-TAMRA] (5TAMRA-R[Ahx]RR[Ahx]RR[Ahx]RR[Ahx]R[Ahx][βAla]-OH)
- TAMRA-positive cells (uptake efficiency): 100%
